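Method: 48-hour compound exposure of cells in 96-well plates, five concentrations, linear interpolation of endpoints. At the GI50, growth is halved.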 Active and inactive are the calls of the source. No stated cut-off is given here; in the data, active = GI50 up to about 1.1 µM and inactive = higher.
Tests used:
Test in all cases: inhibition of tumour cell growth, NCI panel, 48 h
MDA-MB-231 = tested on: MDA-MB-231
IGROV-1 = tested on: IGROV-1
PC-3 = tested on: PC-3
A549 = tested on: A549
MDA-N = tested on: MDA-N
K562 = tested on: K562
HCT-116 = tested on: HCT-116
SNB-19 = tested on: SNB-19
BT-549 = tested on: BT-549
SK-MEL-28 = tested on: SK-MEL-28
OVCAR-4 = tested on: OVCAR-4
SR = tested on: SR
HT-29 = tested on: HT-29
ACHN = tested on: ACHN
OVCAR-8 = tested on: OVCAR-8
TK-10 = tested on: TK-10
COLO 205 = tested on: COLO 205
CCRF-CEM = tested on: CCRF-CEM
SNB-75 = tested on: SNB-75

Measured: GI50

COc1ccc(C#Cn2nnc3ccccc32)cc1
inactive: MDA-MB-231 > 100 µM | IGROV-1 > 100 µM | PC-3 86.7 µM | A549 > 100 µM | MDA-N > 100 µM | K562 > 100 µM | HCT-116 > 100 µM | SNB-19 > 100 µM | BT-549 > 100 µM | SK-MEL-28 > 100 µM | OVCAR-4 > 100 µM | SR > 100 µM | HT-29 > 100 µM | ACHN > 100 µM | OVCAR-8 > 100 µM | TK-10 > 100 µM | COLO 205 > 100 µM

Cc1cc(C)c(/N=N/c2c(O)c(S(=O)(=O)O)cc3cc(S(=O)(=O)O)ccc23)cc1C
inactive: MDA-MB-231 > 100 µM | IGROV-1 > 100 µM | PC-3 > 100 µM | A549 > 100 µM | MDA-N > 100 µM | CCRF-CEM > 100 µM | K562 > 100 µM | HCT-116 > 100 µM | SNB-19 > 100 µM | BT-549 > 100 µM | SK-MEL-28 > 100 µM | OVCAR-4 > 100 µM | HT-29 > 100 µM | ACHN > 100 µM | OVCAR-8 > 100 µM | SNB-75 > 100 µM | TK-10 > 100 µM | COLO 205 > 100 µM

CCCCNc1c(CN)cnc2cc(Cl)ccc12
inactive: MDA-MB-231 15.3 µM | IGROV-1 14.7 µM | PC-3 16.8 µM | A549 20.5 µM | MDA-N 16.1 µM | CCRF-CEM 4.7 µM | K562 13.9 µM | HCT-116 15 µM | SNB-19 22.9 µM | BT-549 16.6 µM | SK-MEL-28 15.6 µM | OVCAR-4 16.6 µM | HT-29 16.9 µM | ACHN 22.6 µM | OVCAR-8 18.2 µM | SNB-75 19.8 µM | TK-10 15 µM | COLO 205 7.48 µM

Cc1cc(-c2[nH]c(C(=O)O)cc2I)on1
inactive: MDA-MB-231 75.2 µM | IGROV-1 12.5 µM | PC-3 > 100 µM | A549 56.6 µM | MDA-N > 100 µM | K562 > 100 µM | HCT-116 42 µM | SNB-19 31 µM | BT-549 66.1 µM | SK-MEL-28 > 100 µM | OVCAR-4 > 100 µM | HT-29 > 100 µM | ACHN 91.4 µM | OVCAR-8 20.2 µM | SNB-75 24.8 µM | TK-10 > 100 µM | COLO 205 > 100 µM

C/C=C\C(CC(=O)NCCC1CN(C(=O)OCc2ccccc2)c2ccccc21)CC(=O)OC (stereo unspecified)
inactive: MDA-MB-231 > 100 µM | IGROV-1 > 100 µM | PC-3 99.8 µM | A549 > 100 µM | MDA-N > 100 µM | CCRF-CEM > 100 µM | K562 > 100 µM | HCT-116 > 100 µM | SNB-19 > 100 µM | BT-549 > 100 µM | SK-MEL-28 > 100 µM | OVCAR-4 > 100 µM | HT-29 > 100 µM | ACHN > 100 µM | OVCAR-8 > 100 µM | SNB-75 > 100 µM | TK-10 > 100 µM | COLO 205 50.5 µM

COC(=O)c1c(C)cccc1C1CN=NC12Cc1cc(C)cc(C)c1C2=O (stereo unspecified)
inactive: MDA-MB-231 12.4 µM | IGROV-1 57.7 µM | PC-3 30.1 µM | A549 37.1 µM | MDA-N 37.6 µM | CCRF-CEM 23 µM | K562 30.2 µM | HCT-116 27.9 µM | SNB-19 73.3 µM | BT-549 29.7 µM | SK-MEL-28 76.4 µM | OVCAR-4 29.2 µM | HT-29 21.5 µM | ACHN 41.5 µM | OVCAR-8 54.1 µM | SNB-75 27 µM | TK-10 32.4 µM | COLO 205 17.2 µM
